We go through 19 compounds from PubChem BioAssay (NCI).

Experiment in all cases: growth of human tumour cells (NCI), 48 h
Experiment [1] relates to SNB-19 CNS.
For experiment [2], the system named is COLO 205 colon.
Experiment [3] has as its system MALME-3M melanoma.
Experiment [4] concerns U251 CNS.
For experiment [5], the system named is HT29 colon.
For experiment [6], the system named is SK-MEL-28 melanoma.
The test system of experiment [7] is SK-MEL-5 melanoma.
For experiment [8], the system named is OVCAR-5 ovarian.
Experiment [9] deals with MCF7 breast.
The subject of experiment [10] is MDA-MB-231 breast.

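All cell lines were grown in 96-well plates and treated with compound for 48 hours. The concentration for 50% growth inhibition is given as GI50. Definition used: TGI = concentration required for complete inhibition of growth.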

Take `COc1cc(NCC(C#N)C#N)ccc1N=Nc1ccc([N+](=O)[O-])cc1`: the TGI in experiment [1], in experiment [2], in experiment [3], in [4], in [5] and in experiment [6] was above 100 µM throughout. Also, the TGI in experiment [7] and in [8] was above 100 µM each time.
Consider `O=C1C2C(C(=O)[N]1[Hg][c]1ccccc1)C1(Cl)C(Cl)=C(Cl)C2(Cl)C1(Cl)Cl` (centres undefined), for which the GI50 is 1.54 µM in [1]; 0.809 µM in experiment [2]; 1.32 µM in [3]; 1.21 µM in experiment [4]; 1.81 µM in [5]; 1.38 µM in [6]. The GI50 was 1 µM in experiment [7] and 2.82 µM in [8]. The TGI in experiment [1] is 2.99 µM; in experiment [2] it was 2.05 µM; in [3], 3.02 µM; in experiment [4], 2.49 µM; in experiment [5] it was 4.25 µM; in [6], 2.73 µM. In addition, the values for the TGI in experiment [7] and in [8] were 2.17 µM and 5.29 µM, respectively.
As to `O=C(N/C(=C\c1ccc([N+](=O)[O-])cc1)c1nc2[nH]c(=S)[nH]c(=O)c2[nH]1)c1ccccc1`, the TGI in [1], in experiment [2], in experiment [3], in experiment [4], in experiment [5] and in experiment [6] was above 100 µM in each case. Also, the TGI in [7] and in [8] was above 100 µM each time.
For `COc1cc(C2[C@H]3C(=O)N(c4ccc(Cc5ccc(N6C(=O)[C@@H]7ON(c8ccccc8)C(c8cc(OC)c(OC)c(OC)c8)[C@@H]7C6=O)cc5)cc4)C(=O)[C@H]3ON2c2ccccc2)cc(OC)c1OC` (some centres undefined), the TGI in [1], in experiment [2], in experiment [3], in experiment [4], in experiment [5] and in [6] was above 100 µM each time. Further, the TGI in experiment [7] and in [8] was above 100 µM each time.
In the case of `O=C(CCCn1ccnc1[N+](=O)[O-])NCCn1cnc([N+](=O)[O-])c1`, the TGI in [1], in experiment [9], in [2], in [3], in [4] and in experiment [5] was above 100 µM throughout. The TGI in experiment [6], in experiment [7] and in experiment [8] was above 100 µM throughout.
In the case of `CC(=O)OCCC/C(=C\c1ccc2ccccc2c1)[N+](=O)[O-]`, the GI50 is 1.77 µM in experiment [1]; 1.57 µM in [2]; 2.02 µM in [10]; 1.91 µM in experiment [3]; 2.3 µM in experiment [5]; 1.26 µM in experiment [6]. Also, the GI50 in experiment [7] is 1.72 µM; in experiment [8] it was 1.75 µM. The TGI in experiment [1] came to 3.28 µM; in experiment [2], 3.43 µM; in [10], 4.59 µM; in experiment [3] it was 4.9 µM; in [5] it was 5.59 µM; in experiment [6] it was 2.84 µM. Also, the values for the TGI in experiment [7] and in experiment [8] were 3.29 µM and 3.42 µM, respectively.
Regarding `COc1ccc(/C=C/c2nc(N3CCOCC3)c3cc(F)c(F)cc3n2)cc1OC`, the GI50 is 5.2 µM in experiment [1]; 2.54 µM in [9]; 3.47 µM in experiment [2]; 6.56 µM in experiment [10]; 5.9 µM in experiment [4]; 5.53 µM in [6]. Besides, the GI50 is 1.18 µM in experiment [7] and 6.54 µM in experiment [8]. Moreover, the TGI is above 100 µM in experiment [1]; above 100 µM in [9]; 20.7 µM in experiment [2]; above 100 µM in experiment [10]; above 100 µM in experiment [4]; above 100 µM in experiment [6]. Besides, the TGI in experiment [7] is 2.81 µM; in [8] it was above 100 µM.
Turning to `CCC[CH2][Sn]1([CH2]CCC)[O]C(=O)C[S]1`, the GI50 in experiment [1] is 1.22 µM; in [2], 1.75 µM; in [3] it was 1.14 µM; in [4], 1.33 µM; in experiment [5], 2.83 µM; in experiment [6], 1.35 µM. For the same compound, the values for the GI50 in experiment [7] and in experiment [8] were 1.44 µM and 2.09 µM, respectively. The TGI in [1] worked out at 2.5 µM; in [2] it was 4.11 µM; in experiment [3], 2.52 µM; in experiment [4], 2.65 µM; in [5], 8.2 µM; in [6], 2.69 µM. The TGI in experiment [7] was 3 µM; in experiment [8], 5.27 µM.
Take `C#CCOCn1cnc2ncnc(Cl)c21`: the TGI in [1], in experiment [2], in experiment [3], in experiment [4], in experiment [5] and in experiment [6] was above 100 µM throughout. Moreover, the TGI in experiment [7] and in experiment [8] was above 100 µM in each case.
Take `CC1=C(C(=O)Nc2ccccc2C)C(c2ccc(N(C)C)cc2)C(C(=O)Nc2ccccc2C)=C(C)N1`: the TGI in experiment [1], in experiment [2], in experiment [3], in experiment [4], in experiment [5] and in [6] was above 100 µM throughout. Also, the TGI in [7] and in experiment [8] was above 100 µM each time.
Regarding `COc1ccc(-c2cc(-c3ccccc3)c(C#N)c(=O)[nH]2)cc1`, the TGI in [1], in experiment [2], in experiment [3], in [4], in experiment [5] and in experiment [6] was above 100 µM in each case. Besides, the TGI in [7] and in [8] was above 100 µM throughout.
Regarding `CCCNC(=O)c1cc2ccccc2cc1C(=O)OC`, the TGI in experiment [1], in experiment [2], in experiment [3], in [4], in [5] and in experiment [6] was above 100 µM each time. For the same compound, the TGI in [7] and in experiment [8] was above 100 µM in each case.
As for `NNC(=O)CC(=O)Nc1ccccc1F`, the TGI in experiment [1], in [2], in [3], in experiment [4], in experiment [5] and in experiment [6] was above 100 µM in each case. Also, the TGI in experiment [7] and in experiment [8] was above 100 µM in each case.
For the compound `COc1cc(C)c(C(=O)/C=C/c2cc(OC)c(O)c(OC)c2)cc1O`, the TGI was 44.5 µM in experiment [1]; above 100 µM in [2]; 36.9 µM in [3]; 44.6 µM in experiment [4]; above 100 µM in experiment [5]; 41.4 µM in experiment [6]. Moreover, the TGI in experiment [7] is 33.6 µM; in experiment [8] it was 69.9 µM.
For the compound `CC1SC2=NC3=C(c4ccccc4C3=O)C(c3ccc(Br)cc3)N2C1=O` (centres undefined), the TGI in experiment [1], in experiment [2], in experiment [3], in experiment [4], in [5] and in experiment [6] was above 100 µM throughout. Further, the TGI in experiment [7] and in [8] was above 100 µM throughout.
As to `O=C1Cc2ccccc2N1/N=C\c1ccc(O)cc1`, the TGI in experiment [1], in experiment [2], in experiment [3], in experiment [4], in experiment [5] and in [6] was above 100 µM throughout. Further, the TGI in experiment [7] and in experiment [8] was above 100 µM throughout.
Regarding `O=C(O)c1cn(C2CC2)c2cc(N3CCN(S(=O)(=O)c4ccc(Cl)c(Cl)c4)CC3)c(F)cc2c1=O`, the GI50 is 3.25 µM in [1]; 2.84 µM in [9]; 3.5 µM in experiment [2]; 2.3 µM in experiment [3]; 3.33 µM in experiment [4]; 3.77 µM in experiment [5]. For the same compound, the GI50 in experiment [7] was 2.04 µM; in [8] it was 4.14 µM. Besides, the TGI in experiment [1] is above 100 µM; in experiment [9] it was above 100 µM; in experiment [2], 11.9 µM; in experiment [3], 5.24 µM; in experiment [4] it was above 100 µM; in experiment [5], above 100 µM. Moreover, the TGI in experiment [7] was 4.42 µM; in [8], above 100 µM.
For the compound `COc1cc(C/C=C/c2ccccc2)c(OC)cc1O`, the TGI in [1] was above 100 µM; in [2], 45.5 µM; in [10] it was 52.9 µM; in [3], 42.4 µM; in experiment [4], 38.2 µM; in [5], 37.8 µM. The results for the TGI in [6], in experiment [7] and in experiment [8] were 35.3 µM, 62.3 µM and 60.6 µM, respectively.
Consider `O=C1c2c(c3c4ccccc4n4c3c3c2c2ccccc2n3C/C=C\C4)C(=O)N1Cc1ccccc1`, for which the TGI in [1], in [2], in experiment [3], in [4], in [5] and in experiment [6] was above 100 µM each time. Also, the TGI in [7] and in experiment [8] was above 100 µM each time.
